These results are taken from patent publication US8859653B2, “Rubber-steel cord composite” (Bridgestone Corporation, priority 2009, dated 2014).

SMILES strings stand for the structures.

The series can be described thus: octanol/water partition coefficient (log P) by high performance liquid chromatography according to JIS Z 7260-117 (2006). Type of series: physicochemical. The source says: The combination which is the best mode described above can be confirmed from a numerical value of an octanol/water partition coefficient (log Pow, hereinafter abbreviated as “log P”) which is one of simple measures for evaluating a condensation property of chemicals. In the present invention, the smaller the value of log P is, the better the balance between the vulcanization speed, securing of the adhesion performance and the accumulativeness in human bodies is.
In the present invention (including examples and the like described later), the octanol/water partition coefficient (log P) described above can be measured by a high performance liquid chromatography according to JIS Z 7260-117 (2006), and it is defined by the following equation: log P=log(┌Co┘/┌Cw┘)
Co: concentration of a test substance in a 1-octanol layer
Cw: concentration of a test substance in an aqueous layer
Also, the octanol/water partition coefficients (log P) of the respective vulcanization accelerators obtained (production examples 1 to 6) were measured by a high performance liquid chromatography according to JIS Z 7260-117 (2006). A high performance liquid chromatography manufactured by Shimadzu Corporation was used.

With `CCN(Sc1nc2ccccc2s1)C(C)(C)C` [N-ethyl-N-t-butylbenzothiazole-2-sulpheneamide], the “octanol/water partition coefficient (log P)” value is listed as 4.9.

Consider `CC(C)N(Sc1nc2ccccc2s1)C(C)(C)C` [N-i-propyl-N-t-butylbenzothiazole-2-sulpheneamide], for which the “octanol/water partition coefficient (log P)” value was found to be 5.1.

For the compound `CN(Sc1nc2ccccc2s1)C(C)(C)C` [N-methyl-N-t-butylbenzothiazole-2-sulpheneamide], the “octanol/water partition coefficient (log P)” value turned out to be 4.5.

For `CCCCN(Sc1nc2ccccc2s1)C(C)(C)C` [N-n-butyl-N-t-butylbenzothiazole-2-sulpheneamide], the “octanol/water partition coefficient (log P)” value was 5.8.

As to `CCCN(Sc1nc2ccccc2s1)C(C)(C)C` [N-n-propyl-N-t-butylbenzothiazole-2-sulpheneamide], the “octanol/water partition coefficient (log P)” value is on record as 5.3.
